Values of other authors, collected in patent US12011508B2, “Methods and devices for reducing vascular smooth muscle cell proliferation” (Board of Supervisors of Louisiana State University and …, priority 2018, dated 2024).

water solubility: practically insoluble in water
Compound: O=c1c(O)c(-c2ccc(O)c(O)c2)oc2cc(O)cc(O)c12 [QUER, 2-(3,4-dihydroxyphenyl)-3,5,7-trihydroxy-4H-1-benzopyran-4-one]
